The values that follow come from US7994202B2, “Bicyclic nitrogen-containing heterocyclic compounds” (Asahi Kasei Pharma Corporation, priority 2008, dated 2011).

For this assay, the system named is female SD rat. The assay is described as follows: Micturition interval prolongation in an anesthetized rat - II (0.2% acetic acid infusion to bladder). It is filed as in vivo. The note with it: urethane-anesthetized female SD rat, 0.2% acetic acid bladder infusion, administered to the left femoral vein. The protocol:
Activity of prolonging micturition interval in an anesthetized rat was determined with reference to the method established by Maggi, et al. (Eur. J. Pharmacol. 145, p. 105-112 (1988)). Specifically, a female SD rat was anesthetized with urethane and fixed in a supine position, and a catheter was inserted through an external urethral opening. Using a three-way stopcock, it was connected to a pressure transducer and a syringe pump. While infusing physiological saline including 0.2% acetic acid to the bladder at constant rate, cystometrogram was recorded. After confirming stabilized micturition interval, micturition threshold pressure and maximal voiding pressure, a solvent or the compound to be tested was administered to the left femoral vein and an activity of prolonging micturition interval was determined as an efficacy of the drug compound. Each group included five animals.

Consider `O=C(O)c1csc(-n2nc(-c3ccccc3)c3ccccc32)n1` [Exp.2, 2-(3-Phenyl-1H-indazol-1-yl)thiazole-4-carboxylic acid], for which the Voiding interval-extending action is given as 30.0%.
